Results reported in patent US20250129135A1, “Multi-Agonist and Use Thereof” (priority 2021, published 2025).
Starred links: 1 amine or outer side, 2 acyl side, 3 side chain; linkers in the order of their positions; H or OH if unused. Non-standard residues stand in square brackets, D forms with d. Residues, ends and D or L forms follow the SMILES beside them. Groups on a side chain read outwards from the residue. *: point of attachment. C20 diacid = O=C(O)CCCCCCCCCCCCCCCCCCC(=O)*; γGlu = O=C(O)[C@H](CCC(=O)[*:2])N[*:1]; αMeL = CC(C)C[C@](C)(N)C(=O)O; AEEA = NCCOCCOCC(=O)O; Aib = CC(C)(N)C(=O)O

Assays:
C57 BL/6J DIO mice = test: In vivo pharmacodynamics in high-fat diet induced obesity (DIO) mice; design: species or system mouse; conditions: Table 9-1; 3 nmol/kg; Day 15; Mean±SEM
Source text: High-fat diet induced obesity (DIO) mice have characteristics such as obesity, elevated blood sugar, insulin resistance, and lipid abnormalities, all of which are very significant metabolic syndromes similar to a human body. The effects of the compounds of the present application on body weight, food intake, blood sugar, and lipids in C57 BL/6J DIO mice were studied.
Obesity was induced in mice by feeding with a high-fat diet (60 kcal % of calories from fat). […] After grouping, one animal was raised in each cage for one week, during which each of the animals was injected subcutaneously (S.C.) with a solvent (1×PBS, 5 ml/kg) to pre-adapt the experimental operation process.
After the preparation of animals, vehicle control or compounds were administered to groups of animals by subcutaneous injection, in which the compounds were dissolved in 1×PBS, the dosage was 5 ml/kg, and the administration operation was started at 9:00 am and conducted once every three days (Q3D) for 15 days. Throughout the entire experimental study, animal weight and food intake were measured daily before administration, and compared with initial weight and food intake of the same animal before administration to calculate a percentage change in animal weight (%) and cumulative food intake, so as to evaluate the impact of compounds on changes in body weight and food intake.
At the end point of the experiment (Day 15), the body weight of the mice was measured, and then fasting blood glucose was measured by taking blood from the tail tip of broken tail without anesthesia. After the blood collection, the animals were anesthetized with CO2 and euthanized. Then, blood was taken from the heart and plasma was separated by centrifugation. The plasma was used to measure total cholesterol (TC), low-density lipoprotein cholesterol (LDL-C), triglycerides (TG), and blood insulin content. The liver was separated for homogenization, and then centrifuged to obtain the supernatant for determining triglyceride content in the liver.
All results were expressed in Mean±SEM, and the results were analyzed by one-way ANOVA using GraphPad Prism 5 software, followed by Dunnett's post hoc test compared to the Vehicle control group. The difference at the p<0.05 level was considered statistically significant.

3T3-L1 adipocytes = system: 3T3-L1 adipocytes
Method: Mouse 3T3-L1 precursor adipocytes can be induced to differentiate into mature adipocytes. […] After the cells became full and contacted with each other, DMEM differentiation medium containing 20% FBS, 0.5 mM IBMX, 0.4 ug/mL dexamethasone, and 5 ug/mL insulin was used to induce differentiation of 3T3-L1 adipocyte. After 5 days of induction and cultivation, DMEM medium containing […], 4 ug/ml insulin, and 10 uM rosiglitazone was used to continue induction and cultivation for 3 days. Then, DMEM medium containing 10% FBS was used to continue cultivation for 2-3 days to induce mature 3T3-L1 adipocytes.
The cAMP level produced by the compound on 3T3-L1 adipocytes was determined in this experiment. The tested compound solution was diluted step by step according to a concentration gradient of 3 times, to obtain a total of 10 series of concentration solutions. The solutions were added to induced mature 3T3-L1 adipocytes and incubated at room temperature for 60 minutes. 10 μL detection reagent in the kit was added to each well after drug incubation, and incubated at room temperature for another 60 minutes. […] GraphPad Prism 5 plotting software was used to create compound concentration-effect curves and calculation was performed.

## CC[C@H](C)[C@H](NC(=O)[C@H](Cc1ccccc1)NC(=O)[C@H](C)NC(=O)C(C)(C)NC(=O)[C@H](CCC(N)=O)NC(=O)[C@H](C)NC(=O)[C@H](CCCCNC(=O)COCCOCCNC(=O)COCCOCCNC(=O)CC[C@H](NC(=O)CCCCCCCCCCCCCCCCCCC(=O)O)C(=O)O)NC(=O)[C@H](CCCCN)NC(=O)[C@H](CC(=O)O)NC(=O)[C@H](CC(C)C)NC(=O)[C@](C)(CC(C)C)NC(=O)[C@@H](NC(=O)[C@H](CO)NC(=O)[C@H](Cc1ccc(O)cc1)NC(=O)[C@H](CC(=O)O)NC(=O)[C@H](CO)NC(=O)[C@@H](NC(=O)[C@](C)(Cc1ccccc1F)NC(=O)[C@@H](NC(=O)CNC(=O)[C@H](CCC(N)=O)NC(=O)C(C)(C)NC(=O)[C@@H](N)Cc1ccc(O)cc1)[C@@H](C)O)[C@@H](C)O)[C@@H](C)CC)C(=O)N[C@@H](CCC(=O)O)C(=O)N[C@@H](Cc1ccccc1)C(=O)N[C@@H](CC(C)C)C(=O)N[C@@H](CC(C)C)C(=O)N[C@@H](CCC(=O)O)C(=O)NCC(=O)NCC(=O)N1CCC[C@H]1C(=O)N[C@@H](CO)C(=O)N[C@@H](CO)C(=O)NC(C)(C)C(=O)N[C@@H](Cc1c[nH]cn1)C(=O)N1CCC[C@H]1C(=O)N1CCC[C@H]1C(=O)N1CCC[C@H]1C(=O)N[C@@H](CO)C(N)=O [Compound 24]
C57 BL/6J DIO mice
  Liver TG: 30.7 ± 1.31 mg

## CC[C@H](C)[C@H](NC(=O)[C@H](Cc1ccccc1)NC(=O)[C@H](C)NC(=O)C(C)(C)NC(=O)[C@H](CCC(N)=O)NC(=O)[C@H](C)NC(=O)[C@H](CCCCNC(=O)COCCOCCNC(=O)CC[C@H](NC(=O)CCCCCCCCCCCCCCCCCCC(=O)O)C(=O)O)NC(=O)[C@H](CCCCN)NC(=O)[C@H](CC(=O)O)NC(=O)[C@H](CC(C)C)NC(=O)[C@](C)(CC(C)C)NC(=O)[C@@H](NC(=O)[C@H](CO)NC(=O)[C@H](Cc1ccc(O)cc1)NC(=O)[C@H](CC(=O)O)NC(=O)[C@H](CO)NC(=O)[C@@H](NC(=O)[C@H](Cc1ccccc1)NC(=O)[C@@H](NC(=O)CNC(=O)[C@H](CCC(N)=O)NC(=O)C(C)(C)NC(=O)[C@@H](N)Cc1ccc(O)cc1)[C@@H](C)O)[C@@H](C)O)[C@@H](C)CC)C(=O)N[C@@H](CCC(=O)O)C(=O)N[C@@H](Cc1ccc(O)cc1)C(=O)N[C@@H](CC(C)C)C(=O)N[C@@H](CC(C)C)C(=O)N[C@@H](CCC(=O)O)C(=O)NC(C)(C)C(=O)NCC(=O)N1CCC[C@H]1C(=O)N[C@@H](CO)C(=O)N[C@@H](CO)C(=O)NCC(=O)N[C@@H](C)C(=O)N1CCC[C@H]1C(=O)N1CCC[C@H]1C(=O)N1CCC[C@H]1C(=O)N[C@@H](CO)C(N)=O [Compound 45] (H-Y[Aib]QGTFTSDYSI[αMeL]LDKK([AEEA-γGlu-C20 diacid])AQ[Aib]AFIEYLLE[Aib]GPSSGAPPPS-NH2)
3T3-L1 adipocytes
  EC50: 8.11 nM
3T3-L1 adipocytes; relative to GIP
  Rel. A (Relative Activity) on 3T3-L1 adipocyte: 46.89%
